Measurements taken from patent US12655104B2, “Anticancer compounds selective for ER-positive cancers” (THE BOARD OF TRUSTEES OF THE UNIVERSITY OF ILLINOIS, priority 2020, dated 2026).
Like-named read-outs stand apart in the source and are kept apart here.

Legend:
T47D = test: Alamar blue fluorescence viability (IC50), T47D; assay type: cell-based; conditions: Homo sapiens, 24 h, read-out: IC50 24 hr (μM)
Procedure: (§1) Cancer Cell Lines: Culturing Conditions and Validation. All cell lines were cultured at 37° C. with 5% CO2. All ERα-positive cell lines were grown in media lacking phenol red. MCF-7 were grown in EMEM with 10% FBS and 1% penicillin-streptomycin (P/S). T47D were cultured in MEM with 10% FBS and 1% P/S. TYS and TDG cells were grown in MEM supplemented with 10% CD-FBS and 1% P/S. HCT-116 and MDA-MB-231 cells were cultured in RPMI-1640 supplemented with 10% FBS and 1% P/S. MDA-MB-436 cells were cultured in DMEM supplemented with 10% FBS and 1% P/S. HT-29 were cultured in McCoy's media supplemented with 10% FBS and 1% P/S. All cell lines were used directly from ATCC stocks and/or have been further authenticated using PowerPlex16HS Assay (Promega) as described previously.^54 In short, >1 million cells were harvested and lysed using the cell lysis buffer (50 mM Tris, 50 mM EDTA, 25 mM sucrose, 100 mM NaCl, 1% SDS, pH 8). […]
(§2) Alamar Blue Fluorescence for Anticancer Activity (IC50). […] After 2-6 hours incubation, each well's fluorescence (λexcit.=555 nm, λemission.=585 nm) was measured using a SpectraMax M3 plate reader (Molecular Devices). Percent dead was determined by comparison to a 100% dead control: 100 μM raptinal treated cells. Dose dependent curves and IC50 were calculated using Origin Pro V10.

T47D-ERaY537S (TYS) = test: Alamar blue fluorescence viability (IC50), TYS; assay type: cell-based; conditions: 24 h, read-out: IC50 24 hr (μM)
Procedure: as §1, §2

MDA-MB-231 = test: Alamar blue fluorescence viability (IC50), MDA-MB-231; assay type: cell-based; conditions: for IC50: Homo sapiens
Procedure: (§3) Cancer Cell Lines: Culturing Conditions and Validation. All cell lines were cultured at 37° C. with 5% CO2. All ERα-positive cell lines were grown in media lacking phenol red. MCF-7 were grown in EMEM with 10% FBS and 1% penicillin-streptomycin (P/S). T47D were cultured in MEM with 10% FBS and 1% P/S. TYS and TDG cells were grown in MEM supplemented with 10% CD-FBS and 1% P/S. HCT-116 and MDA-MB-231 cells were cultured in RPMI-1640 supplemented with 10% FBS and 1% P/S. MDA-MB-436 cells were cultured in DMEM supplemented with 10% FBS and 1% P/S. HT-29 were cultured in McCoy's media supplemented with 10% FBS and 1% P/S. All cell lines were used directly from ATCC stocks and/or have been further authenticated using PowerPlex16HS Assay (Promega) as described previously.^54 In short, >1 million cells were harvested and lysed using the cell lysis buffer (50 mM Tris, 50 mM EDTA, 25 mM sucrose, 100 mM NaCl, 1% SDS, pH 8). DNA extraction and short tandem repeats (STRs) profiling for each cell line were carried out at the University of Arizona Genetics Core (UAGC). Autosomal STR profiles were compared to reference databases such as ATCC, DSMZ, and JCRB.
(§4) Alamar Blue Fluorescence for Anticancer Activity (IC50). 2,000-15,000 cells per well were seeded a 96-well plate. Cells were allowed to adhere before DMSO stock solutions of test compounds were added to each well with a final concentration of DMSO in each well=1%; final volume: 100 μL. At the end of the desired incubation time (e.g., 24 or 72 hours), media in each well was aspirated and new fresh media (no compound, 100 μL) was added. Alamar blue solution (4 mg resazurin per 40 mL PBS) was then added (10 μL). After 2-6 hours incubation, each well's fluorescence (λexcit.=555 nm, λemission.=585 nm) was measured using a SpectraMax M3 plate reader (Molecular Devices). Percent dead was determined by comparison to a 100% dead control: 100 μM raptinal treated cells. Dose dependent curves and IC50 were calculated using Origin Pro V10.

MDA-MB-436 = test: Alamar blue fluorescence viability (IC50), MDA-MB-436; assay type: cell-based; conditions: for IC50: Homo sapiens
Procedure: as §3, §4

HCT-116 = test: Alamar blue fluorescence viability (IC50), HCT-116; assay type: cell-based; conditions: for IC50: Homo sapiens
Procedure: as §3, §4

[1] = Simulated gastric fluid (SGF) stability assay; assay type: in vitro ADME; conditions: 100 μM in SGF with pepsin, 120 min
Procedure: Simulated Gastric Fluid (SGF) Stability Assay. SGF was prepared fresh by adding 3.2 g pepsin (Sigma Aldrich P7000) to 1000 mL of SGF (Fischer Scientific 7108-16) and the pH adjusted to 1.2 using a pH meter. This SGFwith pepsin solution was then warmed to 37° C. 990 μL of warmed SGFwith pepsin was then aliquoted into multiple Eppendorf tubes, followed by 10 μL of 10 mM DMSO stock solutions of test compounds. Erythromycin (MedChemExpress HY-B0220) is a positive control for this stability assay. Samples were incubated at 37° C. for the entire experiment with vortexing every 15 minutes. At each desired time point (0, 15, 30, 60, 120 minutes), a 100 μL aliquot is removed and quenched into 50 μL of acetonitrile. Samples are stored at 4° C. until all time points are complete. Samples were then vortexed and then clarified at 3,000 RPM for 10 minutes in a 4° C. centrifuge. Supernatants were collected and compound concentrations determined by LC-MS/MS (UIUC Metabolomics Center, Urbana, IL.). Determined compound concentrations were used to calculate percent remaining compared to t=0 samples.

[2] = Pharmacokinetic (PK) studies in mice; assay type: in vivo
Procedure: Pharmacokinetic (PK) Studies. […] Mice were then sacrificed in cohorts of 3 at time points (#, #, #). Blood was collected, centrifuged, and plasma separated for quantification of test compound utilizing LC-MS/MS (UIUC Metabolomics Center, Urbana, IL.). Determined compound concentration was then analyzed using non-linear regression programing (WinNonlin) and pharmacokinetic parameters estimated.

[3] = female, CD-1, mouse, in vivo, iv, I.V. 20 mg/kg

Structure (SMILES): O=C1Nc2c(C(F)(F)F)cccc2[C@@]1(c1ccc(O)cc1)N1CCC(F)(F)CC1 (single isomer, unassigned) [ErSO-DFP]
- IC50 (T47D): 0.016 ± 0.002 µM
- IC50 (T47D-ERaY537S (TYS)): 0.007 ± 0.001 µM
- Fold Change (MDA-MB-231; Average Fold Change between 24/72 hr IC50 values for MCF-7 and MDA-MB-231): 1882
- IC50 (MDA-MB-231; MDA-MB-231, 24 h, read-out: IC50 24 hr (μM)): 55 ± 5 µM
- IC50 (MDA-MB-231; MDA-MB-231, 72 h, read-out: IC50 72 hr (μM)): 32 ± 4 µM
- Fold Change (MDA-MB-436; Average Fold Change between 24/72 hr IC50 values for MCF-7 and MDA-MB-436): 3235
- IC50 (MDA-MB-436; MDA-MB-436, 24 h, read-out: IC50 24 hr (μM)): 64 ± 3 µM
- IC50 (MDA-MB-436; MDA-MB-436, 72 h, read-out: IC50 72 hr (μM)): 55 ± 9 µM
- Fold Change (HCT-116; Average Fold Change between 24/72 hr IC50 values for MCF-7 and HCT-116): 3235
- effects bottom out at (% cell death at lower concentrations) (HCT-116; HCT-116 cells, bottom of IC50 curve): ~0%
- IC50 (HCT-116; HCT-116, 24 h, read-out: IC50 24 hr (μM)): 55 µM
- IC50 (HCT-116; HCT-116, 72 h, read-out: IC50 72 hr (μM)): 55 µM
- % Remaining after 120 min (SD) [1]: 13±1%
- AUC ratio ErSO-DFP:ErSO ([2]; I.V. 20 mg/kg): 0.6
- CL ratio ErSO-DFP:ErSO ([2]; I.V. 20 mg/kg): 1.6
- Cmax ratio ErSO-DFP:ErSO ([2]; I.V. 20 mg/kg): 1.9
- MRT ratio ErSO-DFP:ErSO ([2]; I.V. 20 mg/kg): 0.2
- Vss ratio ErSO-DFP:ErSO ([2]; I.V. 20 mg/kg): 0.3
- AUC as % of the ErSO value ([2]; I.V., head-to-head): ~60%
- AUC [2, 3]: 6370 ng·h/mL
- Cmax [2, 3]: 14700 ng/mL
- MRT [2, 3]: 52.8 min
- clearance [2, 3]: 52 mL/min/kg
- Vd ([2]; female, CD-1, mouse, in vivo, iv, I.V. 20 mg/kg, read-out: Vss): 2.75 L/kg
- bioavailability ([2]; female, CD-1, mouse, in vivo, po, read-out: oral availability F %): 6%
